# What was measured:
# Format in all cases: cell-based
# NLRP3 = molecular target: T1, NLRP3 (Homo sapiens, UniProt Q96P20); assay: Measurement of IL-1β production in PMA-differentiated THP-1 cells (NLRP3 hIL1B)
# T1 construct: host or cells: PMA-differentiated THP-1 cells
# In short: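 THP-1 cells differentiated with PMA, then replated in RPMI with 2% FBS and exposed to compound for 4 h (alternative: 2 h; hTRF protocol: 2 h at 37 °C, top concentration 10 μM). Supernatant IL-1β was quantified by ELISA or HTRF. Final DMSO 1%, with vehicle control.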
# human TLR7 = molecular target: T2, human TLR7 (Homo sapiens, UniProt Q9NYK1); assay: In vitro human TLR7 reporter assay (HEK-Blue, NF-kB/AP1-inducible SEAP); conditions: HEK-Blue TLR7 cells, SEAP reporter; read-out: TLR7 Agonist EC50 value
# T2 construct: host or cells: human HEK-Blue cells with NF-kB/AP1-inducible SEAP reporter
# T2 sequence (Q9NYK1 27-1049): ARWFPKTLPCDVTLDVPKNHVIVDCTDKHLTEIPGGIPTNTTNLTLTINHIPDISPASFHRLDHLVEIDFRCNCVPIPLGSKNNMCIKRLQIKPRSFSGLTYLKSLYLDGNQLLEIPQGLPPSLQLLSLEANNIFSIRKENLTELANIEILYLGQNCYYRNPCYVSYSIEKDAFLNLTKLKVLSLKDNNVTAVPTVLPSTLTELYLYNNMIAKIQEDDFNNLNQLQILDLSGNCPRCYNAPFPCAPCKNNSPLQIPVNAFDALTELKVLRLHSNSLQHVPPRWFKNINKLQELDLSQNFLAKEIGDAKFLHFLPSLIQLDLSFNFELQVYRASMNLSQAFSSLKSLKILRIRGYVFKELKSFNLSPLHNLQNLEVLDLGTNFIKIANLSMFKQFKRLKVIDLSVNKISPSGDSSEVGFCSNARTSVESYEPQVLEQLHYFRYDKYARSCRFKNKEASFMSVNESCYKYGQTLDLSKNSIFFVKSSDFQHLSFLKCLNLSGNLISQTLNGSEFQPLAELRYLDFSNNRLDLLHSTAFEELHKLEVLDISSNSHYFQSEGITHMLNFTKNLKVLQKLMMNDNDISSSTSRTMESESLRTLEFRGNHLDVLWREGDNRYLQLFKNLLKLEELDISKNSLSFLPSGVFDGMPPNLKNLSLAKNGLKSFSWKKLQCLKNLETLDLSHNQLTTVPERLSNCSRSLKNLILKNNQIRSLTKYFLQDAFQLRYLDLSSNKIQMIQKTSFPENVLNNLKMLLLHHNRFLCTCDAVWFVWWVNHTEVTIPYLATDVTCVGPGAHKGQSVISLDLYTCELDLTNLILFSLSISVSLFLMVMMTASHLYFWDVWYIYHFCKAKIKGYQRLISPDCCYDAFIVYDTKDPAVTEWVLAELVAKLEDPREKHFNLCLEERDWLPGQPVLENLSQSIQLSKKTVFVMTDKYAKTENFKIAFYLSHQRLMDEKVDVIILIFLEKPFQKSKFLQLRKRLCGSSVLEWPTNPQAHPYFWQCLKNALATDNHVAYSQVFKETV
# Procedure: (§1) In Vitro Human TLR7 and TLR8 Binding Reporter Assays Logarithmically-growing human HEK-Blue cells co-expressing a TLR7 or TLR8 gene and a NF-kB/AP1-inducible SEAP (secreted embryonic alkaline phosphatase; […] Cellular SEAP production is measured using an Envision plate reader instrument thirty minutes after adding freshly-made Quanti-Blue reagent (prepared by following manufacturer instructions; Invivogen, San Diego, CA) to the HEK-Blue TLR Nf-kB-SEAP cell reactions. All EC50 values (half-maximal effective concentration) are determined using proprietary data analysis software.
# human TLR8 = molecular target: T3, human TLR8 (Homo sapiens, UniProt Q9NR97); assay: In vitro human TLR8 reporter assay (HEK-Blue, NF-kB/AP1-inducible SEAP); conditions: at 62.5 μM
# T3 construct: host or cells: human HEK-Blue cells with NF-kB/AP1-inducible SEAP reporter
# T3 sequence (Q9NR97 27-1041): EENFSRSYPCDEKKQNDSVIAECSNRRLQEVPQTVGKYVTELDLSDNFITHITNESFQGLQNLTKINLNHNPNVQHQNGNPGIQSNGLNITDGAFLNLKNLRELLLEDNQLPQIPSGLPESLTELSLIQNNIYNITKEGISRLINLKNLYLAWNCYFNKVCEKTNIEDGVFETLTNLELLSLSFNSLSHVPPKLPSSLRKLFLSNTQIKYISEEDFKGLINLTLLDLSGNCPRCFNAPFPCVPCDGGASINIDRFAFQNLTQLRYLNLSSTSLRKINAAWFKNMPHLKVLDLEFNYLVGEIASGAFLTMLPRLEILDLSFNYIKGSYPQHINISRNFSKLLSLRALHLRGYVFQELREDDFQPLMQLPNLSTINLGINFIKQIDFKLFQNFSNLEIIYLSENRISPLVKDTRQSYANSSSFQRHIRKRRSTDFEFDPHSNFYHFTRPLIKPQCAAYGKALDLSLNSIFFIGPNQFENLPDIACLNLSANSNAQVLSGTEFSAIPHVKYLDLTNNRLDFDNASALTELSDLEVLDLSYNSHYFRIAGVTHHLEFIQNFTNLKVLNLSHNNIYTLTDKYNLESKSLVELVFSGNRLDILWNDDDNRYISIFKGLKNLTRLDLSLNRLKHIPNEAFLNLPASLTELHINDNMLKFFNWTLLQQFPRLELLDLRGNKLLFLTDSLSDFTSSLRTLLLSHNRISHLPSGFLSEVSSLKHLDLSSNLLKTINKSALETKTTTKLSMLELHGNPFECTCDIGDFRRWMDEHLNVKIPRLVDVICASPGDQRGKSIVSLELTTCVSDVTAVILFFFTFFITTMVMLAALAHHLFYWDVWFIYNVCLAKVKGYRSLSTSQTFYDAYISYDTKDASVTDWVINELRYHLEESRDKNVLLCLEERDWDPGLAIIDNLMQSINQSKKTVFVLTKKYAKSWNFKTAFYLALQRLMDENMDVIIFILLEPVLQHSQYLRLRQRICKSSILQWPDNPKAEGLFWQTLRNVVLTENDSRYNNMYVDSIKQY
# Procedure: as §1
# T1 sequence (Q96P20 whole entry): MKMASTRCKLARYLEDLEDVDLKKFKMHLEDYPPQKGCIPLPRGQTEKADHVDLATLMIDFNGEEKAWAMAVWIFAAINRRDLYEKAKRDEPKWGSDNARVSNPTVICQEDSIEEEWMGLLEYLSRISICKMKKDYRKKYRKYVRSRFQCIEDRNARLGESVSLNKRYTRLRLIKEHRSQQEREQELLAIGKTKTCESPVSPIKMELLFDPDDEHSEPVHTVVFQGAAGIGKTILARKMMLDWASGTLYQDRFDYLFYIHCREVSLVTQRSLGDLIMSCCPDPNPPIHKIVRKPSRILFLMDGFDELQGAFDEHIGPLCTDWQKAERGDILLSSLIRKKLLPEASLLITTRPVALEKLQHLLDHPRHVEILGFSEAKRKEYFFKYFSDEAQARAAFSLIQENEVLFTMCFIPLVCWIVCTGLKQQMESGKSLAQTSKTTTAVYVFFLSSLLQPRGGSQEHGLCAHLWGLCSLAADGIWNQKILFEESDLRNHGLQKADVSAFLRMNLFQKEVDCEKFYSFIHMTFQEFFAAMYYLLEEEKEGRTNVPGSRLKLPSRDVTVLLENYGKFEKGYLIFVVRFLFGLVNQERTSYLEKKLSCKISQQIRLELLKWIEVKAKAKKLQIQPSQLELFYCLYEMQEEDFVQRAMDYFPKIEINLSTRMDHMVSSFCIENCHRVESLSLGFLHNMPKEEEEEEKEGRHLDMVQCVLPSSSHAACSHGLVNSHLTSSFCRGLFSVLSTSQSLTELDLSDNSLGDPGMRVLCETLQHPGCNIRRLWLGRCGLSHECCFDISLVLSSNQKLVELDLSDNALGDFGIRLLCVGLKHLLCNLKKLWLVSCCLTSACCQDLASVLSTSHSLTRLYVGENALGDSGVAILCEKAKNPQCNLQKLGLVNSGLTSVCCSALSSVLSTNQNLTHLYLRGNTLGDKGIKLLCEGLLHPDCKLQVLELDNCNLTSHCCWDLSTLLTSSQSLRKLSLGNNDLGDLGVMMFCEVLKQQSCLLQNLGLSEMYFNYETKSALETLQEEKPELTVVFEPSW
EC50 (NLRP3) [nM],EC50 (human TLR7) [nM],TLR8 activity (human TLR8) [%],Structure (SMILES)
710,1000 to 20000,–,"CCCC(CCO)Nc1nc(N)nc2cc(-c3ccn[nH]3)ccc12 (single isomer, unassigned) [Example 97, 3-((2-amino-7-(1H-pyrazol-5-yl)quinazolin-4-yl)amino)hexan-1-ol]"
450,1000 to 20000,–,"CCCCC(CCO)Nc1nc(N)nc2cc(-c3ccn[nH]3)ccc12 (single isomer, unassigned) [Example 100, 3-((2-amino-7-(1H-pyrazol-5-yl)quinazolin-4-yl)amino)heptan-1-ol]"
1200,20000 to 100000,–,COCC(COC)Nc1nc(N)nc2cc(-c3ccn[nH]3)ccc12 [Example 79]
200,> 1000,–,CCCCNc1nc(N)nc2cc(-c3ccn[nH]3)ccc12 [Example 92]
270,1000 to 20000,–,CCCCCNc1nc(N)nc2cc(-c3ccn[nH]3)ccc12 [Example 93]
710,1000 to 20000,–,CCCCCNc1nc(N)nc2cc(-c3cc[nH]n3)cc(F)c12 [Example 125]
4120,–,< 50,Cn1c(CCNc2nc(N)nc3cc(-c4ccn[nH]4)ccc23)nc2ccccc21 [Example 165]

# Reference: patent publication US12187706B2, “NLRP3 modulators” (INNATE TUMOR IMMUNITY, INC., priority 2019, dated 2025)
